Data: PubChem BioAssay AID1963844 (Molecular Pharmacology Branch, DTP, NCI, 2024)
Several values for one entry are separate records, joined by “and”; a condition that tells them apart may be missing. Equal entries are not always repeated.

System: 422866-222-R5-J1-PDC complex spheroid viability
Assay: Anticancer human tumor 422866-222-R5-J1-PDC patient-derived pancreatic adenocarcinoma cell line growth inhibition [POLQ]
Settings: for viability, T/C: stronger effect = lower value
Protocol: Multicellular complex tumor spheroid response to Polymerase (POL) inhibitors (novobiocin, ART-558, RP6685) in combination with a variety of drugs and investigational agents in selected tumor cell lines
The POL inhibitors (novobiocin, ART-558, and RP6685) were evaluated both individually and in combination with standard of care and investigational anticancer small molecules within a complex spheroid model of solid tumors. . Complex spheroids include a stromal component modeled by human endothelial cells (HUVEC) and fibroblasts modeled by human mesenchymal stem cells (MSCs). The concentration ranges selected for each drug and investigational agent were based upon clinically achievable concentrations if the clinical Cmax of the agent was known.
Compounds. The drugs and investigational agents: novobiocin (NSC847541), ART-558 (NSC835418), RP-6685 (NSC848927), peposertib (NSC802822), ceralasertib (NSC780249), elimusertib (NSC800525), camonsertib (NSC841442), AZD-1390 (NSC803789), olaparib (NSC753686), talazoparib (NSC767125), rucaparib (NSC756644), sotorasib (NSC818433), MRTX-1133 (NSC836407), SN-38 (NSC673596), topotecan (NSC609699), epotoside (NSC141540), doxorubicin (NSC123127), gemcitabine (NSC613327), 5-fluorouracil (NSC19893), paclitaxel (NSC125973), vemurafenib (NSC761431), MSA-2 (NSC828583), SN-011 (NSC837082), adavosertib (NSC754352), prexasertib (NSC758257), carboplatin (NSC241240) and oxaliplatin (NSC266046), were obtained from the National Cancer Institute (NCI) Developmental Therapeutics Program Chemical Repository (21). The FDA-approved anticancer drug set is available from the Developmental Therapeutics Program at https://dtp.cancer.gov/organization/dscb/obtaining/. […] The stock solutions were prepared in dimethyl sulfoxide (DMSO, Sigma-Aldrich, St. Louis, MO, cat. D2650), except for the platinum compounds which were prepared in saline (Quality Biological, Gaithersburg, MD, cat. 114-055-101), at 800-fold the tested concentration and stored at -70 degrees C prior to their use. All drugs and investigational agents were tested over a range starting from a high concentration at or near the clinical Cmax and decreasing in half-log increments. If the clinical Cmax for an agent had not been determined, the highest concentration tested was 10 microM, except for SN-38, which was tested at a high concentration of 1 microM.
Cell Culture. All cells were maintained in an incubator at 37 degrees C and 5% CO2 with 95% humidity. The PDC lines were cultured according to standard operating procedures established by the NCI PDMR (https://pdmr.cancer.gov). Table 3 of the manuscript, lists the cell lines along with the number of the three cell types plated to form the mct-spheroids and media for tumor cell growth. After thawing, all PDC lines, except 997537-175-T-J1-PDC and 415267-285-R-J2-PDC, were cultured in Matrigel-coated flasks prepared with a working solution of 1X Ham's F-12 nutrient mix, without supplementation (Thermo Fisher Scientific, cat. 11765054), 100 U/mL penicillin-streptomycin (Thermo Fisher Scientific, cat. 15140122), and 2.5% Matrigel (Corning Inc., Corning, NY, cat. 354248) for the first three passages. The two PDC lines 997537-175-T-J1-PDC and 415267-285-R-J2-PDC were cultured on uncoated flasks. The 857933-349-R-J2-PDC line was cultured in 6C/Colon 1B media containing advanced DMEM/F-12 (Thermo Fisher Scientific, cat. 12634028), 10 mM HEPES (Thermo Fisher Scientific, cat. 15630080), 1X GlutaMAX supplement (Thermo Fisher Scientific, cat. 35050061), 0.1 mg/mL primocin (InvivoGen, San Diego, CA, cat. ant-pm-2), 10% defined fetal bovine serum, heat inactivated (HyClone Laboratories Inc., Logan, UT, cat. SH30070.03HI), 50% L-WRN conditioned media (ATCC, cat. CRL-3276), 1.25 mM N-Acetyl-L-cysteine (Sigma-Aldrich, cat. A9165), 10 mM nicotinamide (Sigma-Aldrich, cat. N0636), 1X B-27 supplement (Thermo Fisher Scientific, cat. 17504044), 1X N-2 supplement (Thermo Fisher Scientific, cat. […]

[1] = curve of first compound, second compound 0.0316 µM
[2] = curve of first compound, second compound 0.1 µM
[3] = curve of first compound, second compound 0.316 µM
[4] = curve of first compound, second compound 1 µM
[5] = curve of first compound, second compound 3.16 µM
[6] = curve of first compound, second compound 10 µM
[7] = second compound 0.0316 µM, first compound 0.00316 µM
[8] = second compound 0.0316 µM, first compound 0.01 µM
[9] = second compound 0.0316 µM, first compound 0.0316 µM
[10] = second compound 0.0316 µM, first compound 0.1 µM
[11] = second compound 0.0316 µM, first compound 0.316 µM
[12] = second compound 0.0316 µM, first compound 1 µM
[13] = second compound 0.1 µM, first compound 0.00316 µM
[14] = second compound 0.1 µM, first compound 0.01 µM
[15] = second compound 0.1 µM, first compound 0.0316 µM
[16] = second compound 0.1 µM, first compound 0.1 µM
[17] = second compound 0.1 µM, first compound 0.316 µM
[18] = second compound 0.1 µM, first compound 1 µM
[19] = second compound 0.316 µM, first compound 0.00316 µM
[20] = second compound 0.316 µM, first compound 0.01 µM
[21] = second compound 0.316 µM, first compound 0.0316 µM
[22] = second compound 0.316 µM, first compound 0.1 µM
[23] = second compound 0.316 µM, first compound 0.316 µM
[24] = second compound 0.316 µM, first compound 1 µM
[25] = second compound 1 µM, first compound 0.00316 µM
[26] = second compound 1 µM, first compound 0.01 µM
[27] = second compound 1 µM, first compound 0.0316 µM
[28] = second compound 1 µM, first compound 0.1 µM
[29] = second compound 1 µM, first compound 0.316 µM
[30] = second compound 1 µM, first compound 1 µM
[31] = second compound 3.16 µM, first compound 0.00316 µM
[32] = second compound 3.16 µM, first compound 0.01 µM
[33] = second compound 3.16 µM, first compound 0.0316 µM
[34] = second compound 3.16 µM, first compound 0.1 µM
[35] = second compound 3.16 µM, first compound 0.316 µM
[36] = second compound 3.16 µM, first compound 1 µM
[37] = second compound 10 µM, first compound 0.00316 µM
[38] = second compound 10 µM, first compound 0.01 µM
[39] = second compound 10 µM, first compound 0.0316 µM
[40] = second compound 10 µM, first compound 0.1 µM
[41] = second compound 10 µM, first compound 0.316 µM
[42] = second compound 10 µM, first compound 1 µM
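Note: spheroids exposed to compounds for one week before readout.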
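Throughout, for viability, T/C: percent of DMSO vehicle wells luminescence so 100% = untreated viability.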

## COc1cccc(OCCCN)c1-c1cc(Nc2cnc(C#N)cn2)n[nH]1 + Cc1cccc(N(C)C(=O)C2C(O)CCN2c2nc(C)cc(C(F)(F)F)c2C#N)c1
[1]
  IC50: 5.54 nM
[2]
  IC50: 6.74 nM
[3]
  IC50: 6.63 nM
[4]
  IC50: 6.92 nM
[5]
  IC50: 5.11 nM
[6]
  IC50: < 3.16 nM
[7]
  viability, T/C: 65.4%
[8]
  viability, T/C: 30.4%
[9]
  viability, T/C: 30.1%
[10]
  viability, T/C: 26.9%
[11]
  viability, T/C: 36.6%
[12]
  viability, T/C: 43.4%
[13]
  viability, T/C: 72.7%
[14]
  viability, T/C: 37.7%
[15]
  viability, T/C: 31.4%
[16]
  viability, T/C: 27.3%
[17]
  viability, T/C: 45.7%
[18]
  viability, T/C: 45.6%
[19]
  viability, T/C: 74.4%
[20]
  viability, T/C: 32.5%
[21]
  viability, T/C: 35%
[22]
  viability, T/C: 30.1%
[23]
  viability, T/C: 51.8%
[24]
  viability, T/C: 32.2%
[25]
  viability, T/C: 77.7%
[26]
  viability, T/C: 37.8%
[27]
  viability, T/C: 28.8%
[28]
  viability, T/C: 32.5%
[29]
  viability, T/C: 25.9%
[30]
  viability, T/C: 43.8%
[31]
  viability, T/C: 58.3%
[32]
  viability, T/C: 39.3%
[33]
  viability, T/C: 30.4%
[34]
  viability, T/C: 35.7%
[35]
  viability, T/C: 29.8%
[36]
  viability, T/C: 50.1%
[37]
  viability, T/C: 68.1%
[38]
  viability, T/C: 30.3%
[39]
  viability, T/C: 36.4%
[40]
  viability, T/C: 30.5%
[41]
  viability, T/C: 35.9%
[42]
  viability, T/C: 54.9%

## C=CCn1c(=O)c2cnc(Nc3ccc(N4CCN(C)CC4)cc3)nc2n1-c1cccc(C(C)(C)O)n1 + Cc1cccc(N(C)C(=O)C2C(O)CCN2c2nc(C)cc(C(F)(F)F)c2C#N)c1
[1]
  IC50: 298 nM
[2]
  IC50: 289 nM
[3]
  IC50: 299 nM
[4]
  IC50: 257 nM
[5]
  IC50: 423 nM
[6]
  IC50: 277 nM
[7]
  viability, T/C: 107%
[8]
  viability, T/C: 96.1%
[9]
  viability, T/C: 110%
[10]
  viability, T/C: 89.1%
[11]
  viability, T/C: 48.4%
[12]
  viability, T/C: 33.3%
[13]
  viability, T/C: 93%
[14]
  viability, T/C: 93.8%
[15]
  viability, T/C: 101%
[16]
  viability, T/C: 85.8%
[17]
  viability, T/C: 47.1%
[18]
  viability, T/C: 35.1%
[19]
  viability, T/C: 108%
[20]
  viability, T/C: 97.3%
[21]
  viability, T/C: 105%
[22]
  viability, T/C: 97.1%
[23]
  viability, T/C: 47.5%
[24]
  viability, T/C: 31.3%
[25]
  viability, T/C: 110%
[26]
  viability, T/C: 85.1%
[27]
  viability, T/C: 104%
[28]
  viability, T/C: 83.8%
[29]
  viability, T/C: 42.8%
[30]
  viability, T/C: 32.3%
[31]
  viability, T/C: 98.4%
[32]
  viability, T/C: 87.2%
[33]
  viability, T/C: 91.6%
[34]
  viability, T/C: 100%
[35]
  viability, T/C: 54.8%
[36]
  viability, T/C: 35.7%
[37]
  viability, T/C: 104%
[38]
  viability, T/C: 95.8%
[39]
  viability, T/C: 97.3%
[40]
  viability, T/C: 75.3%
[41]
  viability, T/C: 46.6%
[42]
  viability, T/C: 40.4%

## CC(C)n1c(=O)n(C)c2cnc3cc(F)c(-c4ccc(OCCCN5CCCCC5)nc4)cc3c21
Compound 0.0316 µM
  viability, T/C: 105% and 90.3% and 107%
Compound 0.1 µM
  viability, T/C: 98.6% and 91.8% and 89.1%
Compound 0.316 µM
  viability, T/C: 110% and 103% and 104%
Compound 3.16 µM
  viability, T/C: 93.9% and 88.3% and 79.2%
Compound 10 µM
  viability, T/C: 70.4% and 52.7% and 75.8%
Curve of compound
  IC50: > 10000 nM
